Key:
[1] = system: bamyardgrass; assay: Test B flood test barnyardgrass; format: in vivo, Echinochloa crus-galli
In short: (§1)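 Flood test on plants grown to the 2-leaf stage; treated plants kept in greenhouse twelve to sixteen days, then visually rated against controls on a 0 (no effect) to 10 (complete control) scale.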

[2] = system: corn; assay: Test B pre/postemergence corn; format: in vivo, Zea mays
In short: (§2)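 Test chemicals in a non-phytotoxic solvent mixture with surfactant were sprayed preemergence onto planted seeds and postemergence onto plants 2 to 18 cm tall (1- to 4-leaf stage). After twelve to sixteen days in a greenhouse, injury was visually rated against untreated controls from 0 (no effect) to 10 (complete control).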

[3] = system: wheat; assay: Test B pre/postemergence wheat; format: in vivo, Triticum aestivum
In short: as §2

[4] = system: purple nutsedge; assay: Test B pre/postemergence purple nutsedge; format: in vivo, Cyperus rotundus
In short: as §2

[5] = system: crabgrass; assay: Test B pre/postemergence crabgrass; format: in vivo, Digitaria sanguinalis
In short: as §2

[6] = system: velvetleaf; assay: Test B pre/postemergence velvetleaf; format: in vivo, Abutilon theophrasti
In short: as §2

[7] = system: bedstraw; assay: Test B pre/postemergence bedstraw; format: in vivo, Galium aparine
In short: as §2

[8] = system: rice; assay: Test B flood test rice; format: in vivo, Oryza sativa
In short: as §1

[9] = system: wild oat; assay: Test B pre/postemergence wild oat; format: in vivo, Avena fatua
In short: as §2

[10] = system: soybean; assay: Test B pre/postemergence soybean; format: in vivo, Glycine max
In short: as §2

[11] = system: duck salad; assay: Test B flood test duck salad; format: in vivo, Heteranthera limosa
In short: as §1

[12] = system: cocklebur; assay: Test B pre/postemergence cocklebur; format: in vivo, Xanthium strumarium
In short: as §2

[13] = system: smallflower flatsedge; assay: Test B flood test smallflower flatsedge; format: in vivo, Cyperus difformis
In short: as §1

[14] = system: sugar beet; assay: Test B pre/postemergence sugar beet; format: in vivo, Beta vulgaris
In short: as §2

[15] = system: surinam grass; assay: Test B pre/postemergence surinam grass; format: in vivo, Brachiaria decumbens
In short: as §2

[16] = system: rape; assay: Test B pre/postemergence rape; format: in vivo, Brassica napus
In short: as §2

[17] = system: blackgrass; assay: Test B pre/postemergence blackgrass; format: in vivo, Alopecurus myosuroides
In short: as §2

[18] = Rate 62 g/ha, headed Pre-emergence (flood test species), scale 0 to 10 (0 no effect, 10 complete control)
[19] = Rate 125 g/ha, Pre-emergence, flood test species, scale 0 to 10 where 0 is no effect and 10 is complete control
[20] = Rate 250 g/ha, Pre-emergence, flood-test species, scale 0 to 10, 0 is no effect, 10 is complete control
[21] = Rate 500 g/ha, Pre-emergence, flood test species, scale 0 to 10 (0 no effect, 10 complete control)
[22] = Preemergence, Rate 62 g/ha, scale of 0 to 10 where 0 is no effect and 10 is complete control
[23] = Preemergence, Rate 250 g/ha, scale of 0 to 10 where 0 is no effect and 10 is complete control
[24] = Preemergence, Rate 500 g/ha, scale of 0 to 10 where 0 is no effect and 10 is complete control
[25] = Rate 62 g/ha, Postemergence, scale 0 to 10 (0 no effect, 10 complete control)
[26] = Rate 125 g/ha, Postemergence, scale of 0 to 10 where 0 is no effect and 10 is complete control
[27] = Rate 125 g/ha, Preemergence, scale of 0 to 10 where 0 is no effect and 10 is complete control
[28] = Rate 250 g/ha, Postemergence, scale of 0 to 10 where 0 is no effect and 10 is complete control
[29] = Rate 500 g/ha, Postemergence, scale 0 to 10, 0 no effect, 10 complete control

Structure (SMILES): CC(C)N(C(=O)n1oc(=O)n(C2CCCC2)c1=O)c1ccc(F)cc1F [Compound 284]
- Barnyardgrass plant response rating [1, 18]: 0
- Barnyardgrass plant response rating [1, 19]: 1
- Barnyardgrass plant response rating [1, 20]: 4
- Barnyardgrass plant response rating [1, 21]: 9
- Corn plant response rating [2, 22]: 0
- Corn plant response rating [2, 23]: 0
- Plant response rating, Corn [2, 24]: 0
- Corn plant response rating [2, 25]: 0
- Corn plant response rating [2, 26]: 0
- Corn plant response rating [2, 27]: 0
- Plant response rating, Corn [2, 28]: 0
- Corn plant response rating [2, 29]: 0
- Wheat plant response rating [3, 22]: 0
- Wheat plant response rating [3, 23]: 0
- Plant response rating, Wheat [3, 24]: 0
- Wheat plant response rating [3, 25]: 0
- Wheat plant response rating [3, 26]: 0
- Wheat plant response rating [3, 27]: 0
- Plant response rating, Wheat [3, 28]: 0
- Nutsedge plant response rating [4, 22]: 0
- Nutsedge plant response rating [4, 23]: 0
- Plant response rating, Nutsedge [4, 24]: 0
- Nutsedge plant response rating [4, 25]: 0
- Nutsedge plant response rating [4, 26]: 0
- Nutsedge plant response rating [4, 27]: 0
- Plant response rating, Nutsedge [4, 28]: 0
- Crabgrass plant response rating [5, 22]: 4
- Crabgrass plant response rating [5, 23]: 8
- Plant response rating, Crabgrass [5, 24]: 9
- Crabgrass plant response rating [5, 25]: 0
- Crabgrass plant response rating [5, 26]: 1
- Crabgrass plant response rating [5, 27]: 4
- Plant response rating, Crabgrass [5, 28]: 1
- Velvetleaf plant response rating [6, 22]: 0
- Velvetleaf plant response rating [6, 23]: 0
- Plant response rating, Velvetleaf [6, 24]: 7
- Velvetleaf plant response rating [6, 25]: 0
- Velvetleaf plant response rating [6, 26]: 0
- Velvetleaf plant response rating [6, 27]: 0
- Plant response rating, Velvetleaf [6, 28]: 2
- Bedstraw plant response rating [7, 22]: 0
- Bedstraw plant response rating [7, 23]: 8
- Plant response rating, Bedstraw [7, 24]: 8
- Bedstraw plant response rating [7, 25]: 2
- Bedstraw plant response rating [7, 26]: 5
- Bedstraw plant response rating [7, 27]: 8
- Plant response rating, Bedstraw [7, 28]: 6
- Bedstraw plant response rating [7, 29]: 9
- Rice plant response rating [8, 18]: 0
- Rice plant response rating [8, 19]: 0
- Rice plant response rating [8, 20]: 0
- Rice plant response rating [8, 21]: 0
- Wild oats plant response rating [9, 22]: 0
- Wild oats plant response rating [9, 23]: 3
- Plant response rating, Wild oats [9, 24]: 5
- Wild oats plant response rating [9, 25]: 0
- Wild oats plant response rating [9, 26]: 0
- Plant response rating, Wild oats [9, 28]: 0
- Soybean plant response rating [10, 22]: 0
- Soybean plant response rating [10, 23]: 0
- Plant response rating, Soybean [10, 24]: 3
- Soybean plant response rating [10, 25]: 4
- Soybean plant response rating [10, 26]: 4
- Soybean plant response rating [10, 27]: 0
- Plant response rating, Soybean [10, 28]: 4
- Ducksalad plant response rating [11, 18]: 0
- Ducksalad plant response rating [11, 19]: 0
- Ducksalad plant response rating [11, 20]: 0
- Ducksalad plant response rating [11, 21]: 0
- Cocklebur plant response rating [12, 22]: 0
- Plant response rating, Cocklebur [12, 24]: 0
- Cocklebur plant response rating [12, 25]: 0
- Cocklebur plant response rating [12, 26]: 2
- Plant response rating, Cocklebur [12, 28]: 2
- Cocklebur plant response rating [12, 29]: 2
- S. Flatsedge plant response rating [13, 18]: 0
- S. Flatsedge plant response rating [13, 19]: 0
- S. Flatsedge plant response rating [13, 20]: 0
- S. Flatsedge plant response rating [13, 21]: 0
- Sugarbeets plant response rating [14, 22]: 2
- Sugarbeets plant response rating [14, 23]: 6
- Plant response rating, Sugarbeets [14, 24]: 6
- Sugarbeets plant response rating [14, 25]: 1
- Sugarbeets plant response rating [14, 26]: 3
- Sugarbeets plant response rating [14, 27]: 5
- Plant response rating, Sugarbeets [14, 28]: 5
- B. signalgrass plant response rating [15, 22]: 5
- B. signalgrass plant response rating [15, 23]: 5
- Plant response rating, B. signalgrass [15, 24]: 8
- B. signalgrass plant response rating [15, 25]: 0
- B. signalgrass plant response rating [15, 26]: 0
- B. signalgrass plant response rating [15, 27]: 5
- Plant response rating, B. signalgrass [15, 28]: 0
- B. signalgrass plant response rating [15, 29]: 1
- Rape plant response rating [16, 22]: 2
- Rape plant response rating [16, 23]: 7
- Plant response rating, Rape [16, 24]: 7
- Rape plant response rating [16, 25]: 1
- Rape plant response rating [16, 26]: 3
- Rape plant response rating [16, 27]: 2
- Plant response rating, Rape [16, 28]: 4
- Blackgrass plant response rating [17, 22]: 0
- Blackgrass plant response rating [17, 23]: 8
- Plant response rating, Blackgrass [17, 24]: 10
- Blackgrass plant response rating [17, 25]: 3
- Blackgrass plant response rating [17, 26]: 5
- Blackgrass plant response rating [17, 27]: 4
- Plant response rating, Blackgrass [17, 28]: 7
- Blackgrass plant response rating [17, 29]: 8

Reference: patent US6737383B1, “Herbicidal oxadiazolidines” (priority 1999, dated 2004)
